Patent US10266495B2, “Phenyl quinolinone derivatives as mutant-isocitrate dehydrogenase inhibitors” (FORMA TM2, Inc., priority 2014, dated 2019)

Experiments:
[1] = target: IDH1-R132C recombinant protein (Homo sapiens, UniProt O75874, R132C); assay: IDH1-R132C enzymatic assay (NADPH consumption, diaphorase/resazurin readout); assay type: biochemical; conditions: read-out: Enzyme IDH1 R132C IC50 Range
Description: (§1) Assays were performed in a 384-well black plate. An aliquot of 250 nL of compound was incubated with 10 μL of 30 nM IDH1-R132H or 10 nM IDH1-R132C recombinant protein in assay buffer (50 mM Tris pH=7.5, 150 mM NaCl, 5 mM MgCl2, 0.1% (w/v) Bovine Serum Albumin, and 0.01% Triton X-100) in each well at 25° C. for 15 minutes. After the plate was centrifuged briefly, an aliquot of 10 μL of 2 mM α-ketoglutarate and 20 μM NADPH solution prepared in assay buffer was then added to each well and the reaction was maintained at 25° C. for 45 minutes. An aliquot of 10 μL of diaphorase solution (0.15 U/mL diaphorase and 30 μM Resazurin in assay buffer) was added to each well. […] The IC50 of a given compound was calculated by fitting the dose response curve of inhibition of NADPH consumption at a given concentration with the four parameter logistic equation.

[2] = target: IDH1-R132H recombinant protein (Homo sapiens, UniProt O75874, R132H); assay: IDH1-R132H enzymatic assay (NADPH consumption, diaphorase/resazurin readout); assay type: biochemical; conditions: read-out: Enzyme IDH1 R132H IC50 Range
Chain of IDH1-R132H recombinant protein (O75874 whole entry R132H): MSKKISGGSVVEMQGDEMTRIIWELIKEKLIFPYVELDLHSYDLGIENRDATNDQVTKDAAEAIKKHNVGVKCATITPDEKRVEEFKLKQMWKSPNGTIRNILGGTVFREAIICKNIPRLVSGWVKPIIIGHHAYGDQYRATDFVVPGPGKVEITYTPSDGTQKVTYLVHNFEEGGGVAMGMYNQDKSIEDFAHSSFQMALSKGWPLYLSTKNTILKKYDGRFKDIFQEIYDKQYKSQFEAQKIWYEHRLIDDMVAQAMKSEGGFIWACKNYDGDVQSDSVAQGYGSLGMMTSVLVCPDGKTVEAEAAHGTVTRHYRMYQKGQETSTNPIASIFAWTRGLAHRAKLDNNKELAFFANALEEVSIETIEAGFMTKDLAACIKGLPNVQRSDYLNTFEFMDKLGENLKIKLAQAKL
Description: as §1

Chain of IDH1-R132C recombinant protein (O75874 whole entry R132C): as the sequence (O75874 whole entry R132H) above, with H132C counted along it

| SMILES | IC50 [1] | IC50 [2] |
| --- | --- | --- |
| COc1cc(NCc2cc3cc(C)ccc3[nH]c2=O)ccc1-n1cnnn1 [Compound I-16, 3-({[3-methoxy-4-(1H-1,2,3,4-tetrazol-1-yl)phenyl]amino}methyl)-6-methyl-1,2-dihydroquinolin-2-one] | > 1000 nM | 100 to 1000 nM |
| COc1cc(NCc2cc3cc(Cl)c(OCCn4ccnc4C)cc3[nH]c2=O)ccc1C#N [Compound I-90, 4-[({6-chloro-7-[2-(2-methyl-1H-imidazol-1-yl)ethoxy]-2-oxo-1,2-dihydroquinolin-3-yl}methyl)amino]-2-methoxybenzonitrile] | 100 to 1000 nM | 10 to 100 nM |
| COc1cc(NC(C)c2cc3cc(Cl)ccc3[nH]c2=O)ccc1C#N (racemic) [Compound I-1, 4-{[1-(6-chloro-2-oxo-1,2-dihydroquinolin-3-yl)ethyl]amino}-2-methoxybenzonitrile] | 10 to 100 nM | 10 to 100 nM |
| COc1cc(NCc2cc3cc(Cl)c(OCCn4ccnc4)cc3[nH]c2=O)ccc1C#N [Compound I-89, 4-[({6-chloro-7-[2-(1H-imidazol-1-yl)ethoxy]-2-oxo-1,2-dihydroquinolin-3-yl}methyl)amino]-2-methoxybenzonitrile] | > 1000 nM | 10 to 100 nM |
| COc1cc(NCc2cc3cc(Cl)c(OCCc4ccccn4)cc3[nH]c2=O)ccc1C#N [Compound I-80, 4-[({6-chloro-2-oxo-7-[2-(pyridin-2-yl)ethoxy]-1,2-dihydroquinolin-3-yl}methyl)amino]-2-methoxybenzonitrile] | > 1000 nM | 10 to 100 nM |
| COc1cc(NCc2cc3cc(Cl)cc(OCc4ccccn4)c3[nH]c2=O)ccc1C#N [Compound I-98, 4-({[6-chloro-2-oxo-8-(pyridin-2-ylmethoxy)-1,2-dihydroquinolin-3-yl]methyl}amino)-2-methoxybenzonitrile] | > 1000 nM | 10 to 100 nM |
| COc1cc(NCc2cc3cc(Cl)c(OCC(=O)N(C)C)cc3[nH]c2=O)ccc1C#N [Compound I-67, 2-[(6-chloro-3-{[(4-cyano-3-methoxyphenyl)amino]methyl}-2-oxo-1,2-dihydroquinolin-7-yl)oxy]-N,N-dimethylacetamide] | > 1000 nM | 10 to 100 nM |
| COc1cc(NCc2cc3ccccc3[nH]c2=O)ccc1C#N [Compound I-47, 2-methoxy-4-{[(2-oxo-1,2-dihydroquinolin-3-yl)methyl]amino}benzonitrile] | > 1000 nM | 100 to 1000 nM |
| COc1cc(NCc2cc3cc(Cl)c(OCc4cnccn4)cc3[nH]c2=O)ccc1C#N [Compound I-76, 4-({[6-chloro-2-oxo-7-(pyrazin-2-ylmethoxy)-1,2-dihydroquinolin-3-yl]methyl}amino)-2-methoxybenzonitrile] | > 1000 nM | 10 to 100 nM |
| COc1cc2[nH]c(=O)c(CNc3ccc(C#N)c(OC)c3)cc2cc1Cl [Compound I-21, 4-{[(6-chloro-7-methoxy-2-oxo-1,2-dihydroquinolin-3-yl)methyl]amino}-2-methoxybenzonitrile] | 100 to 1000 nM | 100 to 1000 nM |
| COc1cc(NCc2cc3cc(Cl)ccc3[nH]c2=O)cc(OC)c1C#N [Compound I-9, 4-{[(6-chloro-2-oxo-1,2-dihydroquinolin-3-yl)methyl]amino}-2,6-dimethoxybenzonitrile] | > 1000 nM | 100 to 1000 nM |
| COc1cc(NCc2cc3cc(Cl)c(OCc4ccncc4)cc3[nH]c2=O)ccc1C#N [Compound I-74, 4-({[6-chloro-2-oxo-7-(pyridin-4-ylmethoxy)-1,2-dihydroquinolin-3-yl]methyl}amino)-2-methoxybenzonitrile] | > 1000 nM | 100 to 1000 nM |
| COc1cc(NCc2cc3cc(Cl)c(OCCc4ccncc4)cc3[nH]c2=O)ccc1C#N [Compound I-81, 4-[({6-chloro-2-oxo-7-[2-(pyridin-4-yl)ethoxy]-1,2-dihydroquinolin-3-yl}methyl)amino]-2-methoxybenzonitrile] | > 1000 nM | 10 to 100 nM |
